Test results: BigSolDB 2.1

Nc1cccc(C(=O)O)c1O
solubility (mole fraction)
Settings | 293.2 K | 298.2 K | 303.2 K | 308.2 K | 313.2 K
in ethanol | 0.000186 | 0.000238 | 0.000285 | 0.000332 | 0.000386
in water | 0.000113 | 0.000126 | 0.000141 | 0.00016 | 0.000178
